Data from the NIST ThermoML archive (doi:10.1021/je700644s).
± gives the expanded uncertainty stated by the source.

Legend:
[1] = molar heat capacity at constant pressure; settings: 101.33 kPa, Crystal
[2] = Crystal; visual observation

N[C@@H](Cc1ccc(O)c(O)c1)C(=O)O [L-3,4-dihydroxyphenylalanine]
[1]
Settings | molar heat capacity at constant pressure [J/K/mol]
78.47 K | 71.34 ± 0.73
79.83 K | 72.35 ± 0.74
81.49 K | 73.75 ± 0.75
83 K | 75.18 ± 0.76
84.82 K | 76.68 ± 0.77
86.63 K | 78.19 ± 0.79
88.44 K | 79.6 ± 0.8
89.94 K | 80.73 ± 0.81
91.35 K | 82.27 ± 1.1
93.06 K | 83.62 ± 1.1
94.81 K | 84.79 ± 1.1
97.14 K | 86.2 ± 1.1
98.89 K | 87.89 ± 1.1
100.72 K | 89.28 ± 1.2
102.64 K | 90.78 ± 1.2
104.71 K | 92.24 ± 1.2
106.74 K | 93.97 ± 1.2
108.74 K | 95.89 ± 1.2
110.71 K | 97.8 ± 1.2
112.66 K | 99.36 ± 1.2
114.58 K | 101.07 ± 1.2
116.47 K | 103 ± 1.2
118.5 K | 104.72 ± 1.2
120.65 K | 106.43 ± 1.2
122.77 K | 108.44 ± 1.2
124.86 K | 110.39 ± 1.2
126.96 K | 112.16 ± 1.2
129.01 K | 113.95 ± 1.3
131.02 K | 115.5 ± 1.3
133.03 K | 117.12 ± 1.3
135.03 K | 118.6 ± 1.3
136.99 K | 120.14 ± 1.3
138.96 K | 121.84 ± 1.3
140.87 K | 123.73 ± 1.3
142.78 K | 125.45 ± 1.3
144.7 K | 127.02 ± 1.3
146.71 K | 128.82 ± 1.3
148.67 K | 130.53 ± 1.3
150.67 K | 132.25 ± 1.3
152.73 K | 133.85 ± 1.3
154.83 K | 135.87 ± 1.3
156.88 K | 137.96 ± 1.4
158.94 K | 139.53 ± 1.4
160.94 K | 141.56 ± 1.4
162.95 K | 143.5 ± 1.4
164.96 K | 144.99 ± 1.4
166.92 K | 146.4 ± 1.4
168.93 K | 148.17 ± 1.4
170.89 K | 150.21 ± 1.4
172.8 K | 151.86 ± 1.4
174.76 K | 153.4 ± 1.4
176.68 K | 155.02 ± 1.4
178.59 K | 156.36 ± 1.4
180.49 K | 157.89 ± 1.4
182.37 K | 159.54 ± 1.4
184.4 K | 161.1 ± 1.4
186.39 K | 162.67 ± 1.4
188.35 K | 164.31 ± 1.5
190.45 K | 165.92 ± 1.5
192.51 K | 167.41 ± 1.5
194.57 K | 169.47 ± 1.5
196.6 K | 171.19 ± 1.5
198.74 K | 173.02 ± 1.5
200.73 K | 174.55 ± 1.5
202.72 K | 176.35 ± 1.5
204.75 K | 178.18 ± 1.5
206.74 K | 179.9 ± 1.5
208.73 K | 181.7 ± 1.5
210.72 K | 183.49 ± 1.5
212.57 K | 185.1 ± 1.5
214.57 K | 186.74 ± 1.6
216.49 K | 188.38 ± 1.6
218.41 K | 190.07 ± 1.6
220.37 K | 191.82 ± 1.6
222.25 K | 193.7 ± 1.6
224.06 K | 195.34 ± 1.6
226.73 K | 197.52 ± 1.6
229.58 K | 199.77 ± 1.6
232.56 K | 202.63 ± 1.6
235.59 K | 205.29 ± 1.6
238.77 K | 207.95 ± 1.6
241.76 K | 210.58 ± 1.6
244.74 K | 212.99 ± 1.6
247.73 K | 215.37 ± 1.7
250.77 K | 218.1 ± 1.7
253.75 K | 220.62 ± 1.7
256.74 K | 223 ± 1.7
259.76 K | 225.81 ± 1.7
262.77 K | 228.18 ± 1.7
265.75 K | 230.91 ± 1.7
268.6 K | 233.5 ± 1.7
271.68 K | 236.23 ± 1.8
274.76 K | 239.03 ± 1.8
277.82 K | 242.01 ± 1.8
280.88 K | 244.64 ± 1.8
283.92 K | 247.23 ± 1.8
286.95 K | 249.5 ± 1.8
289.94 K | 252.13 ± 1.8
292.92 K | 255.42 ± 1.8
295.76 K | 258.06 ± 1.8
298.79 K | 261 ± 1.8
301.77 K | 263.53 ± 1.9
304.66 K | 266.35 ± 1.9
307.79 K | 269.29 ± 1.9
310.97 K | 272.35 ± 1.9
313.95 K | 275.23 ± 1.9
317.08 K | 278.06 ± 1.9
320.26 K | 281.06 ± 1.9
323.2 K | 284.12 ± 1.9
325.79 K | 286.4 ± 1.9
328.38 K | 288.56 ± 1.9
331.07 K | 291.45 ± 2
333.76 K | 293.85 ± 2
336.37 K | 296.31 ± 2
338.98 K | 299.04 ± 2
341.74 K | 301.82 ± 2
344.65 K | 304.77 ± 2
347.41 K | 307.5 ± 2
350.17 K | 309.96 ± 2
352.94 K | 312.58 ± 2
355.85 K | 315.2 ± 2.1
358.46 K | 317.71 ± 2.1
361.22 K | 320.33 ± 2.1
363.98 K | 323.17 ± 2.1
366.59 K | 325.79 ± 2.1
369.35 K | 328.08 ± 2.1
372.11 K | 330.75 ± 2.1
374.87 K | 333.1 ± 2.1
377.49 K | 335.94 ± 2.1
380.09 K | 338.83 ± 2.2
382.85 K | 341.72 ± 2.2
385.61 K | 344.62 ± 2.2
388.83 K | 347.29 ± 2.2
391.44 K | 350.03 ± 2.2
394.35 K | 352.91 ± 2.2
396.81 K | 355.28 ± 2.2
399.26 K | 357.83 ± 2.2

Settings | Normal melting temperature [°C]
[2] | 277.00 ± 2
